From patent US12698260B2, “Solid state form of centanafadine HCL and process for preparation thereof” (ASSIA CHEMICAL INDUSTRIES LTD., priority 2021, dated 2026)

How the values were obtained:
[1] = Solubility over a range of pH; conditions: over a wide range of pH; comparator not stated
[2] = Solid-state stability upon storage and processing; conditions: storage and processing (e.g. grinding, pressure, heat, humidity)

With `c1ccc2cc([C@]34CNC[C@H]3C4)ccc2c1` [(1R,5S)-1-naphthalen-2-yl-3-azabicyclo[3.1.0]hexane] the solubility [1] was “improved solubility” and the “stability of the crystalline form upon storage and processing” value [2] was “stable crystalline Form upon storage and processing”.
